# Tests used:
# [1] = tested on: lambs with acute pulmonary hypertension; details: cited from earlier work; for pulmonary vasodilation / transpulmonary cGMP release / effect on mean arterial pressure / systemic arterial oxygenation: inhaled microparticles; for pulmonary vasodilation / transpulmonary cGMP release: U-46619-induced pulmonary hypertension; for effect on pulmonary vasodilation induced by iNO: BAY 41-8543 inhaled microparticles, ODQ intravenous
# obese mice = details: cited from earlier work
# NO-deficient rats = details: cited from earlier work
# [2] = target: T1, human recombinant soluble guanylate cyclase enzyme α1β1 (Homo sapiens, UniProt Q02108+Q02153); assay: Purified human recombinant sGC α1β1 enzyme assay in the presence of DETA-NONOate (cGMP HTRF); format: biochemical; details: 30 uM DETA NONOate; 50% of maximal response of 30 uM Compound Y; read-out: sGC_Enz_HTRF_a1b1 EC50/IC50 Abs (Norm) (nM) Binned
# T1 construct: purchased Enzo Life Sciences ALX-201-177
# T1 sequence (Q02108 1-690): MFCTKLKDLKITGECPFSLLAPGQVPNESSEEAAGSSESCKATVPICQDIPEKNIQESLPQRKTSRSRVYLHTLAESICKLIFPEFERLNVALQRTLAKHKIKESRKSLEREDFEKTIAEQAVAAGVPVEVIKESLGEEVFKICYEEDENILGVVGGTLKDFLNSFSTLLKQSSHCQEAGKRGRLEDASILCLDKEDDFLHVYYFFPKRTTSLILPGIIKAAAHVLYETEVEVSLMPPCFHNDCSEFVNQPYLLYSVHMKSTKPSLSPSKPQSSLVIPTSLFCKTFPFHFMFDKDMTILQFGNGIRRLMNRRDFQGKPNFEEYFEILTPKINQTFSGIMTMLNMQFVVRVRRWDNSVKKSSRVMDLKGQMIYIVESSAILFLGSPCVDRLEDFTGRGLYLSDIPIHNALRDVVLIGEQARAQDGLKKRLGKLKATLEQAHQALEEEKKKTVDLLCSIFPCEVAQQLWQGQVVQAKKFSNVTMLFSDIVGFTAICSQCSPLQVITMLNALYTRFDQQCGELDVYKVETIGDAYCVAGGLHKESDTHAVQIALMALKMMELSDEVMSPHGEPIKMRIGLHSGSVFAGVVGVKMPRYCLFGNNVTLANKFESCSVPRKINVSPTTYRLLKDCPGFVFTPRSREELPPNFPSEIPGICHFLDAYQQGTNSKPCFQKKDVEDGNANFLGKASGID
# T1 sequence (Q02153 1-619): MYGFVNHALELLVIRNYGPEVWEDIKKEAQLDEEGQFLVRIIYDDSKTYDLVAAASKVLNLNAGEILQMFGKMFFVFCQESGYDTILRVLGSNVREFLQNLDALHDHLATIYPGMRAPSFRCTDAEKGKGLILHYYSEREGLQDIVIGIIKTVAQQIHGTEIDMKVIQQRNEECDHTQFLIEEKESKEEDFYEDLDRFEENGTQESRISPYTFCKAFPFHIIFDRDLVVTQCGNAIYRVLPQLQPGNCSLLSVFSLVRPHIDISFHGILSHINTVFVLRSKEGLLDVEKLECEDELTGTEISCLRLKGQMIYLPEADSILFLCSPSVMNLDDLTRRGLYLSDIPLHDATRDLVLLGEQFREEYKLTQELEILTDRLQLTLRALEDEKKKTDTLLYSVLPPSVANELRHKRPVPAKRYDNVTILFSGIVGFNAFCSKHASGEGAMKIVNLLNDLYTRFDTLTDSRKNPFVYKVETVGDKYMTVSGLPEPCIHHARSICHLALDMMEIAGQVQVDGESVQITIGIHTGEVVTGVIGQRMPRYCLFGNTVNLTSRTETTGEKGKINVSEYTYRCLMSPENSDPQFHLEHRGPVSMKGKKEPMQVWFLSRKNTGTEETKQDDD
# Experimental: Purified human recombinant soluble guanylate cyclase enzyme α1β1(h sGC) obtained from Enzo Life Sciences (P/N: ALX-201-177) was used to evaluate the activity of test compounds. The assay reactions contained 0.1 M Tris (pH 8.0), 0.5 mg/mL BSA, 2 mM DTT, 4 mM MgCl2, 30 uM DETA NONOate (Enzo Life Science P/N: ALX-430-014), and 12.5 ng/ml human soluble guanylate cyclase enzyme. […] Guanosine 5′-triphosphate (Sigma-Aldrich P/N: G8877) was added to a final concentration of 300 μM and enzyme reactions were incubated (100 μL, 384-well plate format) at 37° C. for 20 minutes. The controls contained 3% DMSO (low control), or 30 uM of Compound Y (high control). After the 20 minute incubation, the reaction was stopped with the addition of 100 μL of ice cold 20% acetic acid.
# cGMP concentrations in all samples were determined using the cGMP HTRF (Cisbio P/N: 62GM2PEC) assay per manufacturer's instructions. A cGMP standard curve was fit using a 4-parameter fit (log(inhibitor) vs. response—variable slope) using GraphPad Prism Software v.6. Samples were diluted appropriately to ensure that values fell within the linear range of the standard curve.
# Data were fit using a 4-parameter fit (log(agonist) vs. response—variable slope) using GraphPad Prism Software v.6.
# [3] = tested on: Guinea pig tracheal smooth muscle; assay: Electrical field stimulated guinea pig tracheal smooth muscle (ex vivo) bronchodilation model; details: inhibition of EFS-induced baseline contraction; 95% Cl, 0.78-0.94
# Experimental: It is possible to assess the bronchodilating effects of sGC stimulators by using the system described below. […]
# On each experimental day, a guinea pig is killed by exposure to a rising concentration of CO2 and the trachea removed. […] Tissues are washed with Kreb's buffer and stimulated using the previously determined sub-maximal voltage for 1 hour to establish a stable baseline contraction prior to assessment of compound activity.
# A cumulative dose response curve (DRC) to each test substance is then performed and changes in smooth muscle contraction measured. The effect of each test substance in each experiment is expressed as a percentage inhibition of the baseline contraction, normalized to the relevant vehicle controls. […] The data from all three experiments are pooled, the DRC plotted, and the test substance potency and efficacy determined.
# sickle mice = details: oral, high doses; cited from earlier work
# [4] = tested on: sickle cell disease patients; details: cited from earlier work
# mdx mouse = details: cited from earlier work
# [5] = tested on: adult sickle cell disease patients; details: infusions; cited from earlier work
# [6] = tested on: adult patients with sickle cell disease; details: acute VOE, vs placebo; cited from earlier work
compound,measurement,setting,value
Nc1nc(-c2nn(Cc3ccccc3F)c3ncccc23)ncc1C1CC1 [BAY 41-2272],pulmonary vasodilation,[1],dose dependent pulmonary vasodilation
same,transpulmonary cGMP release,[1],increased
same,effect on mean arterial pressure,[1],without significant effect
Nc1nc(-c2nn(Cc3ccccc3F)c3ncccc23)nc(N)c1N1CCOCC1 [BAY 41-8543],effect on pulmonary vasodilation induced by iNO,[1],augmented
same,pulmonary vasodilation,[1],dose dependent pulmonary vasodilation
same,transpulmonary cGMP release,[1],increased
same,effect on mean arterial pressure,[1],without significant effect
same,systemic arterial oxygenation,[1],increased
O=C(O)CCCCN(CCc1ccccc1OCc1ccc(CCc2ccccc2)cc1)Cc1ccc(C(=O)O)cc1 [BAY 58-2667],pulmonary vasodilation and transpulmonary cGMP release after treatment with ODQ,[1]; inhaled microparticles after ODQ,greatly enhanced
same,pulmonary vasodilation,[1],dose dependent pulmonary vasodilation
same,transpulmonary cGMP release,[1],increased
same,effect on mean arterial pressure,[1],without significant effect
same,systemic arterial oxygenation,[1],increased
O=C(O)CCCCN(CCc1cc(F)ccc1OCc1ccc(-c2ccc(C(F)(F)F)cc2)cc1)Cc1ccc(C(=O)O)cc1 [BAY 60-2770],overactive bladder,obese mice,ameliorates overactive bladder
Nc1nc(-c2nn(Cc3ccccc3F)c3ncccc23)ncc1C1CC1 [BAY-2272],bladder dysfunction,NO-deficient rats,protective effects
COc1cc(-c2ncc(F)c(N3CCn4c(n[nH]c4=O)C3)n2)nn1Cc1ccccc1F [Compound I-2],EC50,[2],1000 to 5000 nM
COc1cc(-c2ncc(F)c(N3CCc4cn[nH]c4C3)n2)nn1Cc1ccccc1F [Compound I-6],EC50,[2],1000 to 5000 nM
CC(=O)c1cc(-c2ncc(F)c(N3CCn4c(n[nH]c4=O)C3)n2)nn1Cc1ccccc1F [Compound I-14],EC50,[2],1000 to 5000 nM
CC(=O)c1cc(-c2ncc(F)c(N3CCc4[nH][nH]c(=O)c4C3)n2)nn1Cc1ccccc1F [Compound I-16],EC50,[2],1000 to 5000 nM
CC(C)[N+]1(C)[C@@H]2CC[C@H]1CC(OC(=O)C(CO)c1ccccc1)C2 (stereo partly drawn) [Ipratropium bromide],IC50,[3],0.00086 µM
N=C(N)NCCC[C@H](N)C(=O)O [L-arginine],"Gardos channel activity, dense cell formation and hemolysis",sickle mice,decrease
"O=c1onc2cnc3ccccc3n12 [ODQ, 1H-[1,2,4]oxadiazolo[4,3-a]quinoxalin-1-one]",effect on pulmonary vasodilation induced by iNO,[1],markedly reduced
CCCc1nn(C)c2c(=O)[nH]c(-c3cc(S(=O)(=O)N4CCN(C)CC4)ccc3OCC)nc12 [sildenafil],"serious side effects (VOE, headache, visual disturbance)","[4]; Walk-PHaSST multicenter trial, stopped prematurely",higher frequency of serious side effects
same,PAP and exercise capacity,[4]; sickle cell disease patients with severe PHT,improvements
same,"muscle ischemia, injury and fatigue after a brief bout of exercise",mdx mouse,alleviate muscle ischemia
O=NO [sodium nitrite],forearm blood flow,[5],enhanced
nitric oxide [inhaled NO],pain scores,[6],significantly reduced

# — patent US10047095B2, “sGC stimulators” (IRONWOOD PHARMACEUTICALS, INC., priority 2014, dated 2018)
